Measurements as given in PMC8728392, “Synthesis, Anticancer Assessment, and Molecular Docking of Novel Chalcone-Thienopyrimidine Derivatives in HepG2 and MCF-7 Cell Lines” (Oxidative Medicine and Cellular Longevity, 2021).

What was measured:
[1] = tested on: A549 human lung adenocarcinoma cells; design: method as in PMID 29660690; conditions: cited from earlier work
[2] = tested on: Bax, Bcl-2, caspase-3, and caspase-9 in HepG2; assay: RT-PCR relative expression of apoptosis markers; format: cell-based, human; conditions: IC50, 8-hour incubation, vs control
Excerpt: We determined the effect of IC50 concentration of newly synthesized thienopyrimidine derivatives (3a-e and 3g and 3b and 3g) on the relative expression levels of some markers of apoptosis in HepG2 and MCF-7 cell lines, respectively. These included the antiapoptotic marker Bcl-2 as well as the apoptotic markers Bax, caspase-3, and caspase-9 [33]. BIORAD iScript™ One-Step RT-PCR kit with SYBR® Green was used to assess the relative levels of expression of apoptosis markers. The measurement was carried out according to the technique of reverse transcription polymerase chain reaction (RT-PCR) using the Rotor-Gene RT-PCR system, and the method of the used kit was done based on the manufacturer's instructions. The procedure of this assay included the following:
Based on the manufacturer's instructions, the Qiagen RNeasy Extraction Kit (Qiagen Ltd., UK) was used to isolate mRNA from approximately 1 × 10^7 cells according to the cell line.
Mix all the following reagents to get the total volume (50 μl): 2X SYBR® Green RTPCR reaction mixture (25 μl), forward primer […] (1.5 μl), reverse primer […] (1.5 μl), nuclease-free water (11 μl), RNA template (1 pg-100 ng total RNA) (10 μl), and iScript reverse transcriptase (1 μl) for One-Step RT-PCR.
The thermal cycler (Rotor-Gene) program used was as follows: one cycle for reverse transcription at 50°C for 10 minutes and one cycle for RT inactivation/Hot-start activation at 95°C for 5 minutes and then 45 cycles for qPCR (10 s at 95°C, 30 seconds for annealing at 55°C, and 30 seconds for extension at 72°C), and this is followed by the final extension (one cycle) at 72°C for 10 minutes.

[3] = tested on: human liver cancer cell line (HepG2); assay: MTT assay, cytotoxicity; format: cell-based; conditions: HepG2, 24 hours
Description: (§1) Cancer cell lines were manipulated according to the method described by Sigounas et al.. In this method, the cell lines were grown as adherent monolayers in T75 flasks with Dulbecco's modified Eagle's medium (DMEM) supplemented with 10% Fetal Bovine Serum (FBS), 2 mM L-glutamine, and 1% streptomycin/penicillin. The cells were left to grow in a CO2 incubator at 37°C, 5% CO2, and 95% humidity until their confluence.
(§2) The 3-[4,5-dimethylthiazol-2-yl]-2,5-diphenyltetrazolium bromide (MTT) colorimetric assay was used to examine the sensitivity of cells to tested compounds (as anticancer drugs), as previously described. This assay depends on the production of a purple formazan derivative from the yellow tetrazolium bromide (MTT) by mitochondrial succinate dehydrogenase in viable cells. The percentage of cell survival was calculated as follows: (1) Percentage of survival=O.D.treated cells/O.D.control cells×100.
(§3) For preliminary screening of the cytotoxicity of synthesized compounds 3a-g, cells exposed to DMSO were used as a control. Plotting the relationship between the survival score and the compound concentration and calculating the IC50 (the concentration required to inhibit cell viability by 50%) were performed for each test compound according to Li et al. in comparison with the reference standard anticancer agent, 5-FU.
(§4) The 3-[4,5-dimethylthiazol-2-yl]-2,5-diphenyltetrazolium bromide (MTT) colorimetric assay was used to examine the sensitivity of cells to tested compounds (as anticancer drugs), as previously described by Hussein et al. (2017). This assay depend on the production of a purple formazan derivative from the yellow tetrazolium bromide (MTT) by mitochondrial succinate dehydrogenase in viable cells. Briefly, after harvesting the cells with 0.25% trypsin, the cell lines were suspended in DMEM. Cells were seeded in 96-well microtiter plates at a concentration of 5×10^4 cell/well in a fresh medium and left to attach to the plates for 24 h before treatment with the tested compounds 3a-g. Test compounds were dissolved in dimethyl sulfoxide (DMSO). After 24 hours, cells were incubated with the appropriate concentration ranges of compounds, the wells were diluted to […] with fresh medium and incubation was continued for 24 hours. Three wells were used for each concentration. After 24 hours of treatment, 20 μl of MTT solution (5mg/ml) was added and subsequently the plates were further incubated for 4 hours to allow the viable cells to biotransform the yellow-colored MTT into purple formazan crystals. The optical density (O.D.) of each well was measured spectrophotometrically at […] with an enzyme-linked immunosorbent assay (ELISA) microplate reader (BioTek, EL-800, USA). The percentage of cell survival was calculated as follows: […]

[4] = tested on: human breast cancer cell line (MCF-7); assay: MTT assay, cytotoxicity; format: cell-based; conditions: MCF-7, 24 hours
Description: as §1, §2, §3, §4

HepG2 cell line = assay: Cell cycle analysis (PI, flow cytometry); format: cell-based, human
Description: Cell cycle analysis was performed to decide if the newly synthesized thienopyrimidine derivatives arrested the cell cycle and at what phase of the cell cycle, the HepG2 and MCF-7 cell lines were arrested. The experiments were performed as previously described by Tolba et al.. HepG2 and MCF-7 cell lines were seeded and incubated with the tested compounds in 6-well plates. After incubation overnight, the cells were washed twice with ice-cold phosphate-buffered saline (PBS), detached by EDTA-trypsinization from the plates, harvested by centrifugation, fixed in ice-cold 70% (v/v) ethanol, and washed with phosphate-buffered saline (PBS, pH 7.2 ± 0.2). The cells were resuspended with 0.1 mg/ml RNase, stained with […] propidium iodide (PI), and analyzed by flow cytometry using a FACSCalibur flow cytometer (BD Biosciences, San Jose, CA). CellQuest software (Becton Dickinson) was used to determine the cell cycle distributions after incubation with 5-FU or tested compounds. Exposure of HepG2 and MCF-7 cell lines to these compounds could interfere with the normal cell cycle distribution.

HepG2 cells = assay: Annexin V-FITC/PI apoptotic assay; format: cell-based, human
Excerpt: (§5) Annexin V-fluorescein isothiocyanate (FITC) and counterstaining with propidium iodide (PI) using the Annexin V-FITC/PI apoptosis detection kit (BD Biosciences, San Diego, CA) were employed to distinguish early and late apoptotic cells according to the manufacturer's directions. Annexin V conjugated with fluorescein isothiocyanate was used to quantify the loss of phosphatidylserine asymmetry in cell membranes involved in apoptosis, and propidium iodide can distinguish between early apoptosis, late apoptotic, and necrotic cells. Analyses were achieved by using a FACSCalibur flow cytometer (BD Biosciences, San Jose, CA).
(§6) Cells were gently washed twice with PBS accompanied by tryptic digestion (0.25% trypsin/EDTA) and washed yet again with PBS. All the cells including the floating and adherent ones were harvested, pooled and stained with […] in 1× binding buffer for 15 min at room temperature in the dark. Analyses were achieved by FACS Calibur flow cytometer (BD Biosciences, San Jose, CA).

MCF-7 cell line = assay: Annexin V-FITC/PI apoptotic assay; format: cell-based, human
Excerpt: as §5, §6

C=CCn1c(SCC(=O)Nc2ccc(C(=O)/C=C/c3cc(OC)c(OC)c(OC)c3)cc2)nnc1-c1ccc(OC)cc1 [compound I]
IC50 [1]: 4.4 µM

Ethyl (Z)-2-(Ethoxymethyl)-4-oxo-3-(2-oxo-2-((4-(3-(2,3,4-trimethoxyphenyl)acryloyl)-phenyl)amino)ethyl)-3,5,6,8-tetrahydropyrido[4′,3′:4,5]thieno[2,3-d]pyrimidine-7(4H)-carboxylate [Compound 3d]
expression levels of Bcl-2 [2]: noticeably decreased
survival percentage (mean ± SEM) ([3]; 4.8828125 μg/ml): 123.0 ± 0.026%
survival percentage (mean ± SEM) ([3]; 9.765625 μg/ml): 111.0 ± 0.041%
survival percentage (mean ± SEM) ([3]; 19.53125 μg/ml): 99.2 ± 0.026%
survival percentage (mean ± SEM) ([3]; 39.0625 μg/ml): 91.2 ± 0.138%
survival percentage (mean ± SEM) ([3]; 78.125 μg/ml): 31.0 ± 0.017%
survival percentage (mean ± SEM) ([3]; 156.25 μg/ml): 20.5 ± 0.002%
survival percentage (mean ± SEM) ([3]; 312.5 μg/ml): 20.5 ± 0.002%
survival percentage (mean ± SEM) ([3]; 625 μg/ml): 20.0 ± 0.001%
survival percentage (mean ± SEM) ([3]; 1250 μg/ml): 19.5 ± 0.001%
survival percentage (mean ± SEM) ([3]; 2500 μg/ml): 19.4 ± 0.004%
survival percentage (mean ± SEM) ([3]; 5000 μg/ml): 18.5 ± 0.003%
survival percentage (mean ± SEM) ([3]; 10000 μg/ml): 18.4 ± 0.002%
survival percentage (mean ± SEM) ([4]; 4.8828125 μg/ml): 133.8 ± 0.227%
survival percentage (mean ± SEM) ([4]; 9.765625 μg/ml): 146.0 ± 0.065%
survival percentage (mean ± SEM) ([4]; 19.53125 μg/ml): 133.2 ± 0.116%
survival percentage (mean ± SEM) ([4]; 39.0625 μg/ml): 132.7 ± 0.231%
survival percentage (mean ± SEM) ([4]; 78.125 μg/ml): 113.1 ± 0.171%
survival percentage (mean ± SEM) ([4]; 156.25 μg/ml): 103.1 ± 0.202%
survival percentage (mean ± SEM) ([4]; 312.5 μg/ml): 35.3 ± 0.044%
survival percentage (mean ± SEM) ([4]; 625 μg/ml): 26.5 ± 0.120%
survival percentage (mean ± SEM) ([4]; 1250 μg/ml): 8.5 ± 0.006%
survival percentage (mean ± SEM) ([4]; 2500 μg/ml): 6.2 ± 0.005%
survival percentage (mean ± SEM) ([4]; 5000 μg/ml): 6.12 ± 0.003%
survival percentage (mean ± SEM) ([4]; 10000 μg/ml): 5.8 ± 0.001%
S phase cell population (HepG2 cell line): significant (P < 0.05) increase
cell population in pre-G1 phases compared with control cells (HepG2 cell line): significant increase

CCOC(=O)Cn1c(SCC(=O)Nc2ccc(C(=O)/C=C\c3ccccc3Cl)cc2)nc2sc3c(c2c1=O)CCN(C(=O)OCC)C3 [Compound 3a, Ethyl (Z)-2-((2-((4-(3-(2-Chlorophenyl)acryloyl)phenyl)amino)-2-oxoethyl)thio)-3-(2-ethoxy-2-oxoethyl)-4-oxo-3,5,6,8-tetrahydropyrido[4′,3′:4,5]thieno[2,3-d]pyrimidine-7(4H)-carboxylate]
expression levels of Bcl-2 [2]: noticeably decreased
melting point: 181 to 182 °C
early and late apoptosis (HepG2 cells): significantly exhibited early and late apoptosis
total, early, and late apoptosis as well as necrosis relative to the control cells (MCF-7 cell line): significant increase
survival percentage (mean ± SEM) ([3]; 4.8828125 μg/ml): 103.5 ± 0.033%
survival percentage (mean ± SEM) ([3]; 9.765625 μg/ml): 87.8 ± 0.087%
survival percentage (mean ± SEM) ([3]; 19.53125 μg/ml): 74.2 ± 0.012%
survival percentage (mean ± SEM) ([3]; 39.0625 μg/ml): 73.8 ± 0.019%
survival percentage (mean ± SEM) ([3]; 78.125 μg/ml): 66.9 ± 0.018%
survival percentage (mean ± SEM) ([3]; 156.25 μg/ml): 40.1 ± 0.021%
survival percentage (mean ± SEM) ([3]; 312.5 μg/ml): 28.4 ± 0.009%
survival percentage (mean ± SEM) ([3]; 625 μg/ml): 21.7 ± 0.012%
survival percentage (mean ± SEM) ([3]; 1250 μg/ml): 20.5 ± 0.004%
survival percentage (mean ± SEM) ([3]; 2500 μg/ml): 19.5 ± 0.001%
survival percentage (mean ± SEM) ([3]; 5000 μg/ml): 19.1 ± 0.001%
survival percentage (mean ± SEM) ([3]; 10000 μg/ml): 18.5 ± 0.001%
survival percentage (mean ± SEM) ([4]; 4.8828125 μg/ml): 150.0 ± 0.171%
survival percentage (mean ± SEM) ([4]; 9.765625 μg/ml): 132.9 ± 0.132%
survival percentage (mean ± SEM) ([4]; 19.53125 μg/ml): 124.4 ± 0.079%
survival percentage (mean ± SEM) ([4]; 39.0625 μg/ml): 129.1 ± 0.038%
survival percentage (mean ± SEM) ([4]; 78.125 μg/ml): 108.4 ± 0.084%
survival percentage (mean ± SEM) ([4]; 156.25 μg/ml): 101.8 ± 0.284%
survival percentage (mean ± SEM) ([4]; 312.5 μg/ml): 101.6 ± 0.022%
survival percentage (mean ± SEM) ([4]; 625 μg/ml): 64.9 ± 0.008%
survival percentage (mean ± SEM) ([4]; 1250 μg/ml): 9.8 ± 0.003%
survival percentage (mean ± SEM) ([4]; 2500 μg/ml): 6.28 ± 0.003%
survival percentage (mean ± SEM) ([4]; 5000 μg/ml): 6.0 ± 0.001%
survival percentage (mean ± SEM) ([4]; 10000 μg/ml): 6.0 ± 0.063%
cell population in G2/M compared with control cells (HepG2 cell line): substantial increase
cell population in pre-G1 phases compared with control cells (HepG2 cell line): significant increase

N.N.[Cl][Pt][Cl] [cisplatin]
IC50 [1]: 15.3 µM
